How the values were obtained:
[1] = test system: broadleaf plantain (PLAMA); assay: Postemergent granule herbicides, turfgrass field studies; type: in vivo, Plantago major L.; conditions: Table I, 2 sites, Penoxsulam 140 gai/Ha, Scotts Plus 2 1682+841 gae/Ha, Trimec 1121+516+112 gae/Ha
Procedure: (§1) Field studies were conducted in established turfgrass sites containing a natural population of target broadleaf weeds. Replicated trials, containing a minimum of three replications and having individual plots ranging in size from 25 to 50 ft. sq (2.3 to 4.6 square meters), were initiated in the late spring when turf and weeds were actively growing. Granule treatments were uniformly applied to individual plots using a common hand-shaker method. Applications were made in the early morning when dew was present. Natural rainfall and supplemental irrigation were used to maintain healthy turf and active weed growth throughout the study period. Control of each weed species in the study site was made at 2, 4 and 8 weeks after treatment. Control was determined visually by comparing treated and untreated weeds and scored on a 0 to 100 percent scale where 0 corresponds to no control and 100 corresponds to complete kill.

[2] = test system: pennywort (dollarweed) (HYDSS); assay: as above; type: in vivo, Hydrocotyle spp; conditions: Table III, 1 site
Procedure: as §1

[3] = test system: yellow nutsedge (CYPES); assay: Granule carrier comparison, pre-emergence greenhouse study; type: in vivo, Cypres esculentus L.; conditions: pre-emergent greenhouse
Procedure: (§2) Greenhouse and field studies evaluated the effect of two granule carriers and two particles sizes on the postemergent broadleaf activity of penoxsulam. The two carriers were a 46-0-0 and 28-4-12 fertilizer blend and the particle sizes averaged 0.75 mm and 2.15 mm.
Greenhouse studies were applied both post and pre-emergence to broadleaf weeds and sedge reared from seed or nutlet in 12.7″ (32.25 cm) by 8.8″ (22.35 cm) flats of a loam soil. Particle size and carrier were evaluated post emergence, carrier comparisons with the smaller particle size of 0.75 was evaluated pre-emergence. Stage of growth of species at post emergence application: PLAMA and TAROF in the 3 to 5 leaf stage, TRFRE in the 3rd tri-foliate stage and CYPES in the 3 to 4 leaf stage. Post emergence trial design was a replicated block, one species per flat, 3 replicate flats per treatment. Granule treatments were uniformly applied to individual flats on an area basis using a common hand-shaker method. Post emergence applications were made to the flat covering both soil and misted foliage. Trial was sub-irrigated daily, and watered over the top 1 time per week starting 7 days after application to simulate a natural rainfall event. Active weed growth was maintained throughout the study period. Weed control of each species in the post emergence study was assessed at 2, 3 and 4 weeks after treatment. Pre-emergence trial design was 2 species per flat, 4 replicate flats, block design. Pre-emergence applications were made to the soil surface using a common hand shaker method on an area basis. Overhead irrigation was maintained throughout the trial. Weed control of each species in the pre-emergence study was assessed at 2, 3, 4 and 5 weeks after application. Control was determined visually by comparing treated and untreated flats and scored on a 0 to 100 percent scale where 0 corresponds to no control and 100 corresponds to complete kill.

[4] = test system: white clover (TRFRE); assay: Granule carrier/particle size, postemergent field study; type: in vivo, Trifolium repens L.
Procedure: as §2, §1

[5] = test system: pennywort (dollarweed) (HYDSS); assay: as above; type: in vivo, Hydrocotyle spp
Procedure: as §2, §1

[6] = test system: Hydrocotyle species (HYDSS); assay: Post emergent synergy field study, penoxsulam + dicamba granule; type: in vivo; conditions: average of 2 studies 4 weeks after application
Procedure: as §1, with “Field and greenhouse studies were conducted to determine if there may be any synergistic response when penoxsulam is combined with other herbicides for post emergence broadleaf or sedge control. Field” for “Field”
Component A was penoxsulam at 0.02 or 0.04 lb ai/A. Component B was dicamba at 0.1 lb ai/A. Individual products and mixture were applied on a 30-3-4 granule fertilizer formulated to deliver 116 pounds fertilizer per acre (129 kg per hectare). Loadings for the individual component on the fertilizer were: • Penoxsulam 22.4 gai/Ha (0.02 lb ai/A)=0.017% • Penoxsulam 44.9 gai/Ha (0.04 lb ai/A)=0.034% • Dicamba 112 gae/Ha (0.1 lb ai/A)=0.086%
For combinations the same loadings were applied to the same granule carrier and applied as a single product to test area.

[7] = test system: wild mustard (SINAR); assay: Pre-emergence orchard floor weeds, greenhouse study; type: in vivo, Sinapsis arvense; conditions: 28 Days After Application
Procedure: Greenhouse studies were conducted by seeding species in a loam soil and applying the herbicides to the soil surface using a Cornwall 5 milliliter glass syringe fitted with a TeeJet TN-3 nozzle on an area basis Immediately following herbicide application the pots were irrigated over the top to move the herbicides into the seeding zone. Pots were kept well irrigated throughout the trial. A percent visual weed control assessment was taken 4 weeks after application. Control was determined visually by comparing treated and untreated pots and scored on a 0 to 100 percent scale where 0 corresponds to no control and 100 corresponds to complete kill, or no emergence.

[8] = test system: vine and orchard floor weeds; assay: Vine and orchard floor weed control (general statement); type: in vivo; conditions: APESV, AMARE, POROL, SETFA, ECHCG, ECHCO, SSYIR, SINAR, EPHHE, EROCI, MALNE, MALPA, SONOL, SENVU
[9] = carrier 28-4-12, particle size 0.75 mm, 11.2 gai/Ha
[10] = carrier 28-4-12, particle size 0.75 mm, 22.4 gai/Ha
[11] = carrier 46-0-0, particle size 0.75 mm, 11.2 gai/Ha
[12] = carrier 46-0-0, particle size 0.75 mm, 22.4 gai/Ha
[13] = carrier 28-4-12, particle size 2.15 mm, 11.2 gai/Ha
[14] = carrier 28-4-12, particle size 2.15 mm, 22.4 gai/Ha
[15] = carrier 46-0-0, particle size 2.15 mm, 11.2 gai/Ha
[16] = carrier 46-0-0, particle size 2.15 mm, 22.4 gai/Ha

SMILES: COc1cnc(OC)n2nc(NS(=O)(=O)c3c(OCC(F)F)cccc3C(F)(F)F)nc12 [Penoxsulam, 2-(2,2-difluoroethoxy)-N-(5,8-dimethoxy[1,2,4]triazolo[1,5-c]-pyrimidin-2-yl)-6-(trifluoromethyl)benzenesulfonamide]
- Mean Percent Weed Control ([1]; 4 Weeks After Treatment): 81%
- Mean Percent Weed Control ([1]; 8 Weeks After Treatment): 87%
- Mean Percent Weed Control ([2]; 4 Weeks After Treatment, 22.4 gai/Ha): 50%
- Mean Percent Weed Control ([2]; 4 Weeks After Treatment, 44.9 gai/Ha): 97%
- Mean Percent Weed Control ([2]; 4 Weeks After Treatment, 67.3 gai/Ha): 98%
- Mean Percent Weed Control ([2]; 4 Weeks After Treatment, 100 gai/Ha): 100%
- Mean Percent Weed Control ([2]; 8 Weeks After Treatment, 22.4 gai/Ha): 40%
- Mean Percent Weed Control ([2]; 8 Weeks After Treatment, 44.9 gai/Ha): 93%
- Mean Percent Weed Control ([2]; 8 Weeks After Treatment, 67.3 gai/Ha): 84%
- Mean Percent Weed Control ([2]; 8 Weeks After Treatment, 100 gai/Ha): 97%
- Percent Weed Control 35 DAA ([3]; carrier 28-4-12, particle size 0.75 mm, 5.6 gai/Ha): 60%
- Percent Weed Control 35 DAA [3, 9]: 70%
- Percent Weed Control 35 DAA [3, 10]: 89%
- Percent Weed Control 35 DAA ([3]; carrier 46-0-0, particle size 0.75 mm, 5.6 gai/Ha): 37%
- Percent Weed Control 35 DAA [3, 11]: 57%
- Percent Weed Control 35 DAA [3, 12]: 79%
- Percent Weed Control 26-27 DAA [4, 9]: 80%
- Percent Weed Control 26-27 DAA [4, 10]: 97%
- Percent Weed Control 26-27 DAA [4, 13]: 48%
- Percent Weed Control 26-27 DAA [4, 14]: 70%
- Percent Weed Control 26-27 DAA [4, 11]: 82%
- Percent Weed Control 26-27 DAA [4, 12]: 95%
- Percent Weed Control 26-27 DAA [4, 15]: 34%
- Percent Weed Control 26-27 DAA [4, 16]: 78%
- Percent Weed Control 26-27 DAA [5, 9]: 56%
- Percent Weed Control 26-27 DAA [5, 10]: 70%
- Percent Weed Control 26-27 DAA [5, 13]: 49%
- Percent Weed Control 26-27 DAA [5, 14]: 42%
- Percent Weed Control 26-27 DAA [5, 11]: 44%
- Percent Weed Control 26-27 DAA [5, 12]: 87%
- Percent Weed Control 26-27 DAA [5, 15]: 38%
- Percent Weed Control 26-27 DAA [5, 16]: 75%
- % Control Component A ([6]; 22.4 gai/Ha on 30-3-4 granule fertilizer): 37%
- % Control Component A ([6]; 44.9 gai/Ha on 30-3-4 granule fertilizer): 59%
- Pre-emergent Percent Mean Control ([7]; 8.8 gai/Ha): 79%
- Pre-emergent Percent Mean Control ([7]; 17.5 gai/Ha): 91%
- Pre-emergent Percent Mean Control ([7]; 35 gai/Ha): 98%
- Pre-emergent Percent Mean Control ([7]; 70 gai/Ha): 98%
- effectiveness in controlling vine and orchard floor weeds [8]: effective

— US8455397B2, “Penoxsulam as a turfgrass, vineyard and orchard floor herbicide” (Dow AgroSciences, LLC, priority 2005, dated 2013)
